The target of this test is T1, PSIP1^PWWP (AA 2-100, Uniprot-ID: O75475) (Homo sapiens, UniProt O75475).
T1 construct: PSIP1^PWWP (AA 2-100, Uniprot-ID: O75475); GST (cleaved yes); made in house; host or cells: E. coli BL21 Rosetta2 (DE3)
As to the kind of experiment: NMR titration (15N-HSQC chemical shift perturbation) of peptides binding to PSIP1 PWWP domain.

Each structure is given as a SMILES string. Read-outs that look alike come from different tables or passages of the source. Positions of bridges follow the written chain, without caps; N, C: chain ends. Non-standard residues stand in square brackets, D forms with d. Residues, ends and D or L forms follow the SMILES beside them. Chains are numbered I, II in the order given. Lys(Me3) = C[N+](C)(C)CCCC[C@H](N)C(=O)O

T1 sequence (O75475 2-100): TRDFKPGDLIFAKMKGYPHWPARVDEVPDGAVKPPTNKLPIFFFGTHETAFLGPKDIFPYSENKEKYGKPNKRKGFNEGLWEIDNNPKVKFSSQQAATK
Method: Cells were grown to an OD of 0.6 and induced with 500 μM IPTG. The protein was expressed for 3 h at 37 °C. […] The GST-fusion protein was eluted using elution buffer (50 mM KPi pH 7.0, 100 mM KCl, 50 mM reduced glutathione, 1 mM DTT, complete EDTA-free protease inhibitor (Roche)). Thrombin cleavage of the GST-tag was carried out for 3 h at 37 °C after adding 10U of thrombin to the combined eluted fractions, then quenched by addition of 1 mM PMSF and incubation for 15 min at 37 °C. […] The PWWP-containing fractions were then combined and dialyzed to NMR buffer (20 mM NaPi (pH = 7.0), 150 mM NaCl, cOmplete protease inhibitor, 10% (v/v) D2O).
All peptides were dissolved in NMR buffer (20 mM NaPi (pH = 7.0), 150 mM NaCl, cOmplete protease inhibitor, 10% (v/v) D2O). The pH for all peptide stocks was adjusted to 7.0 using NH4OH. Determination of peptide stock concentrations was done using 1D NMR spectra with TSP as reference compound. […] The Val signal was verified by 2D NMR spectra (TOCSY, ^13C-HSQC).
All NMR experiments were carried out at 298 K on a Bruker Avance spectrometer operating at 750 MHz ^1H Larmor frequency with room-temperature probe. Processing was done using the Bruker’s TopSpin. Spectra were analyzed using Sparky (Goddard and Kneller, UCSF).
Titration data were fitted using MatLAB scripts (available upon request) using the fast-exchange assumption [50]. […] Profiles were selected either form the ^1H or ^15N dimension. A 1:1 binding model was assumed. […] The degrees of freedom are equal to total number of points NM compensated for the number of global variables (KD), the M offset-variables and M chemical shift differences. To obtain the 95% confidence limits in the KD, a one-dimensional grid search was performed either systematically increasing or decreasing the KD until the reduced χ^2 exceeded the 95% critical value according to an F-test.
Analysis of the bound-state chemical shifts was based on selected residues K14 (^1H/^15N), M15 (^1H), W21 (^1H), F44 (^15N) T47 (^1H/^15N), H48 (^1H), T50 (^1H/^15N) and A51 (^1H/^15N) due to their significant shift in all experiments.

Regarding `CC(=O)N[C@@H](CO)C(=O)N[C@@H](C)C(=O)N1CCC[C@H]1C(=O)N[C@@H](C)C(=O)N[C@H](C(=O)NCC(=O)NCC(=O)N[C@H](C(=O)N[C@@H](CCCC[N+](C)(C)C)C(=O)NCC(=O)NCC(=O)NCCCC[C@H](NC(=O)CNC(=O)CNC(=O)[C@H](CCC(=O)O)NC(=O)[C@H](CCC(=O)O)NC(=O)[C@H](CCC(=O)O)NC(=O)[C@H](CCC(=O)O)NC(=O)[C@H](CCC(=O)O)NC(C)=O)C(=O)NCC(=O)NCC(=O)N[C@@H](CCC(=O)O)C(=O)N[C@@H](CCC(=O)O)C(=O)N[C@@H](CCC(=O)O)C(=O)N[C@@H](CCC(=O)O)C(=O)N[C@@H](CCC(=O)O)C(N)=O)C(C)C)[C@@H](C)O` [H3^(E5)2] (I: Ac-EEEEEGGKGGEEEEE-NH2 / II: Ac-SAPATGGV[Lys(Me3)]GG; amide I:8-II:C; N-terminus and C-terminus assumed), the Kd is, setting by setting: (same titration and fit, limits from grid search, F-test, read-out: KD, 95% probability limits) 190 to 700 µM; (~300 µM 15N-PSIP1^PWWP, 20 mM NaPi pH 7.0, 150 mM NaCl, 298 K, 1:1 binding model, read-out: KD (global fit of NMR-derived binding curves)) 360 µM.

`CC(=O)N[C@@H](CO)C(=O)N[C@@H](C)C(=O)N1CCC[C@H]1C(=O)N[C@@H](C)C(=O)N[C@H](C(=O)NCC(=O)NCC(=O)N[C@H](C(=O)N[C@@H](CCCC[N+](C)(C)C)C(=O)N[C@@H](CCCCN)C(=O)N1CCC[C@H]1C(=O)N[C@@H](CCC(=O)O)C(=O)N[C@@H](CCC(=O)O)C(=O)N[C@@H](CCC(=O)O)C(=O)N[C@@H](CCC(=O)O)C(=O)N[C@@H](CCC(=O)O)C(=O)N[C@@H](CCC(=O)O)C(N)=O)C(C)C)[C@@H](C)O` [H3^PE6] (Ac-SAPATGGV[Lys(Me3)]KPEEEEEE-NH2): the Kd (~300 µM 15N-PSIP1^PWWP, 20 mM NaPi pH 7.0, 150 mM NaCl, 10% D2O, 298 K, 1:1 binding model, fast exchange, global fit of all residues with significant CSP, read-out: KD, best-fit value (global fit of NMR titration data)) worked out at 1740 µM.

The values above are taken from paper PMC7662849, “Mimicking the Nucleosomal Context in Peptide-Based Binders of a H3K36me Reader Increases Binding Affinity While Altering the Binding Mode” (Molecules, 2020).
